In ChEMBL document CHEMBL1130002, “Synthesis and biological evaluation of the 1,5-diarylpyrazole class of cyclooxygenase-2 inhibitors: identification of 4-[5-(4-methylphenyl)-3-(trifluoromethyl)-1H-pyrazol-1-yl]benze nesulfonamide (SC-58635, celecoxib)” (J Med Chem, 1997):

Key:
[1] = species: Rattus norvegicus; experiment: animal or person; type: functional
Description: Effective dose was determined in vivo in male lewis rats by rat adjuvant-induced arthritis assay

[2] = species: Rattus norvegicus; experiment: animal or person; type: functional; remark: listed apart in the source
[3] = species: Rattus norvegicus; experiment: animal or person; type: functional; remark: listed apart in the source
Description: Effective dose was determined in vivo in male Dawley rats by rat carrageenan-induced hyperalgesia assay

[4] = in vivo; conditions: male, rat, po, 10 mg/kg
[5] = species: Rattus norvegicus; experiment: animal or person; type: functional; remark: listed apart in the source
[6] = in vivo; conditions: male, rat, po, 20 mg/kg
[7] = in vivo; conditions: male, rat, po, 10 mg/kg; remark: listed apart in the source
[8] = in vivo; conditions: male, rat, iv, 10 mg/kg
[9] = species: Rattus norvegicus; type: functional, Stomach
Description: Concentration at which gastric damage will occur was determined in rat

[10] = species: Rattus norvegicus; experiment: animal or person; conditions: read-out: Inhibition
Description: Percent inhibition was determined in vivo in male Dawley rats at a dose of 10 mg/kg by rat carrageenan-induced hyperalgesia assay

half-life [8] [h]	Compound	ED50 [1] [mg/kg]	ED50 [2] [mg/kg]	ED50 [3] [mg/kg]	further results
	NS(=O)(=O)c1ccc(-n2nc(C(F)(F)F)c(Cl)c2-c2ccc(Cl)cc2)cc1	0.006	8.8		
	Cc1ccc(-c2cc(C(F)F)nn2-c2ccc(S(N)(=O)=O)cc2)cc1	0.35	2.4	37.3	half-life [4]: 3.3 h
	COc1ccc(-c2cc(C(F)F)nn2-c2ccc(S(N)(=O)=O)cc2)cc1	0.01	13.7	36	
	NS(=O)(=O)c1ccc(-n2nc(C(F)(F)F)cc2-c2ccc(Cl)cc2)cc1	0.07	5.4		ED50 [5]: 6.6 mg/kg; half-life [6]: 117 h
	N#Cc1cc(-c2ccc(F)cc2)n(-c2ccc(S(N)(=O)=O)cc2)n1	0.51	7.5	67.1	
	COc1ccc(-c2cc(C(F)(F)F)nn2-c2ccc(S(N)(=O)=O)cc2)cc1				half-life [7]: 5.6 h
4.5	NS(=O)(=O)c1ccc(-n2nc(C(F)F)cc2-c2ccc(Cl)cc2)cc1	0.63	13	7.7	
3.5	Cc1ccc(-c2cc(C(F)(F)F)nn2-c2ccc(S(N)(=O)=O)cc2)cc1 [CELECOXIB]	0.37	7.1	34.5	
3.5	COc1ccc(-c2cc(C(F)F)nn2-c2ccc(S(N)(=O)=O)cc2)cc1F [DERACOXIB]	0.05	18.6	33	
	COc1ccc2c(c1)c(CC(=O)O)c(C)n2C(=O)c1ccc(Cl)cc1 [INDOMETHACIN]	0.11	1.15	4.1	Ulceration [9]: 7 mg/kg
	COc1ccc2cc([C@H](C)C(=O)O)ccc2c1 [NAPROXEN]		1.6		Ulceration [9]: 255 mg/kg; inhibition in vivo at 10 mg/kg [10]: 66%
	CN1C(C(=O)Nc2ccccn2)=C(O)c2ccccc2S1(=O)=O [PIROXICAM]		2.4		inhibition in vivo at 10 mg/kg [10]: 52%
221	CS(=O)(=O)c1ccc(-n2nc(C(F)(F)F)cc2-c2ccc(F)cc2)cc1 [SC-58125]	0.41	10.5	58.3	
